Test results reported in US12404239B2, “Modulators of BCL6 as ligand directed degraders” (Celgene Corporation, priority 2022, dated 2025).

Key:
BCL6 [1] = molecular target: T1, BCL6 (Homo sapiens, UniProt P41182); experiment: 24 h degradation assay (BCL6 HiBiT); assay type: cell-based; conditions: read-out: YCon (% remaining maximal effect)
T1 construct: HiBiT-tag knocked into endogenous BCL6 locus using CRISPR; endogenous in cells; host or cells: DHL-4_BCL6_HiBiT cells (CRISPR knock-in)
Protocol: A DHL-4 cell line with HiBiT-tag knocked into endogenous BCL6 locus using CRISPR was generated. The DHL-4_BCL6_HiBiT cells were dispensed into 384-well plates (Corning no. 3570) that were pre-spotted with compounds. Compounds were dispensed by an acoustic dispenser (ATS acoustic transfer system from EDC Biosystems) into a 384-well plate in a 10-point dose response curve using 3-fold dilutions starting at 1-10 μM and going down to 0.0015-0.00015 μM. 25 μL of media (RPMI-1640+10% heat inactivated FBS+1×Pen/Strep) containing 2500 of DHL-4 was dispensed per well. […] After incubation, 25 μL of the Nano-Glo HiBiT lytic detection working solution (Promega, catalogue no. N3040, Madison, WI) was added to each well and incubated at room temperature for 15-30 min, protected from light. After 30 min, luminescence was read on an Envision or PHERAstar luminescence reader. To determine the EC50 value (the half-maximum effective concentration) and the level of the gradation (Yconstant) of a BCL6 degrader, luminescent signal normalized by DMSO control (Y) and compound concentration (x) was fitted using a four-parameter dose-response model (Y=(A+((B−A)/1+((C/x)^D) in Dotmatics. Fitted value C is the degradation EC50 and the minimum value A is the Y constant.

BCL6 [2] = molecular target: T1, BCL6; experiment: BCL6_HiBiT degradation assay (2 h); assay type: cell-based; conditions: DHL-4_BCL6_HiBiT cells, read-out: YCon (% remaining maximal effect)
Summary of the method: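 DHL-4 cells carrying CRISPR HiBiT knock-in at endogenous BCL6, treated 2 h at 37 °C with 10-point 3-fold dilutions from 1-10 μM. BCL6 level read by Nano-Glo HiBiT lytic luminescence normalized to DMSO; four-parameter fit gives degradation EC50 and Yconstant (% remaining at maximal effect).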

SMILES	Emax (BCL6 [1]) [%]	Percent BCL6 remaining at maximal degradation (Ycon) (BCL6 [2]) [%]
C[C@@H]1C[C@@H](N(C)c2ncc(Cl)c(Nc3ccc4c(c3)CC(=O)N4C)n2)CC(=O)N1c1ccc2c(C3CCC(=O)NC3=O)nn(C)c2c1 (stereo partly drawn) [Example 151, 3-(6-((2R,4R)-4-((5-chloro-4-((1-methyl-2-oxoindolin-5-yl)amino)pyrimidin-2-yl)(methyl)amino)-2-methyl-6-oxopiperidin-1-yl)-1-methyl-1H-indazol-3-yl) piperidine-2,6-dione]	< 20	
C[C@H]1C[C@H](N(C)c2ncc(Cl)c(Nc3ccc4c(c3)CC(=O)N4C)n2)CC(=O)N1c1ccc2c(C3CCC(=O)NC3=O)nn(C)c2c1 (stereo partly drawn) [Example 153, 3-(6-((2S,4S)-4-((5-chloro-4-((1-methyl-2-oxoindolin-5-yl)amino)pyrimidin-2-yl)(methyl)amino)-2-methyl-6-oxopiperidin-1-yl)-1-methyl-1H-indazol-3-yl) piperidine-2,6-dione]	< 20	
C[C@H]1C[C@@H](N(C)c2ncc(Cl)c(Nc3ccc4c(c3)CC(=O)N4C)n2)CC(=O)N1c1ccc2c(C3CCC(=O)NC3=O)nn(C)c2c1 (stereo partly drawn) [Example 152, 3-(6-((2S,4R)-4-((5-chloro-4-((1-methyl-2-oxoindolin-5-yl)amino)pyrimidin-2-yl)(methyl)amino)-2-methyl-6-oxopiperidin-1-yl)-1-methyl-1H-indazol-3-yl) piperidine-2,6-dione]	> 60	
C[C@@H]1C[C@H](N(C)c2ncc(Cl)c(Nc3ccc4c(c3)CC(=O)N4C)n2)CC(=O)N1c1ccc2c(C3CCC(=O)NC3=O)nn(C)c2c1 (stereo partly drawn) [Example 150, 3-(6-((2R,4S)-4-((5-chloro-4-((1-methyl-2-oxoindolin-5-yl)amino)pyrimidin-2-yl)(methyl)amino)-2-methyl-6-oxopiperidin-1-yl)-1-methyl-1H-indazol-3-yl) piperidine-2,6-dione]	20 to 60	
Cn1nc(N2CCC(=O)NC2=O)c2ccc(NC3CCN(c4ncc(Cl)c(Nc5ccc6c(c5)CC(=O)N6CC(F)(F)F)n4)CC3)cc21 [Example 136, 1-(6-((1-(5-chloro-4-((2-oxo-1-(2,2,2-trifluoroethyl)indolin-5-yl)amino)pyrimidin-2-yl)piperidin-4-yl)amino)-1-methyl-1H-indazol-3-yl)dihydropyrimidine-2,4(1H,3H)-dione]		> 60
CN1C(=O)Cc2cc(Nc3nc(N4CCC(c5ccc6c(N7CCC(=O)NC7=O)nn(C)c6c5)CC4)ncc3Cl)ccc21 [Example 134, 1-(6-(1-(5-chloro-4-((1-methyl-2-oxoindolin-5-yl)amino)pyrimidin-2-yl)piperidin-4-yl)-1-methyl-1H-indazol-3-yl)dihydropyrimidine-2,4(1H,3H)-dione]		> 60

The remaining lines, values ahead:

Emax (BCL6 [1]) [%]	Percent BCL6 remaining at maximal degradation (Ycon) (BCL6 [2]) [%]	SMILES
20 to 60		CO[C@@H]1CN(c2ncc(C#N)c(Nc3ccc4c(c3)CC(=O)N4C)n2)CC[C@H]1Nc1ccc2c(C3CCC(=O)NC3=O)nn(C)c2c1 (stereo partly drawn) [Example 145, 2-((3R,4R)-4-((3-(2,6-dioxopiperidin-3-yl)-1-methyl-1H-indazol-6-yl)amino)-3-methoxypiperidin-1-yl)-4-((1-methyl-2-oxoindolin-5-yl)amino) pyrimidine-5-carbonitrile]
	< 20	C[C@@H]1CN(c2ncc(Cl)c(Nc3ccc4c(c3)CC(=O)N4CCC(C)(C)F)n2)CC[C@H]1Nc1ccc2c([C@H]3CCC(=O)NC3=O)nn(C)c2c1 (single isomer, unassigned) [Example 108]
	< 20	C[C@@H]1CN(c2ncc(Cl)c(Nc3cc(F)c4c(c3)CC(=O)N4C)n2)CC[C@H]1Nc1ccc2c(C3CCC(=O)NC3=O)nn(C)c2c1 (stereo partly drawn) [Example 95, 3-(6-(((3R,4R)-1-(5-chloro-4-((7-fluoro-1-methyl-2-oxoindolin-5-yl)amino)pyrimidin-2-yl)-3-methylpiperidin-4-yl)amino)-1-methyl-1H-indazol-3-yl)piperidine-2,6-dione]
	< 20	CC(C)N1C(=O)Cc2cc(Nc3nc(N4CC[C@@H](Nc5ccc6c(C7CCC(=O)NC7=O)nn(C)c6c5)[C@H](C)C4)ncc3Cl)ccc21 (stereo partly drawn) [Example 115, 3-(6-(((3R,4R)-1-(5-chloro-4-((1-isopropyl-2-oxoindolin-5-yl)amino)pyrimidin-2-yl)-3-methylpiperidin-4-yl)amino)-1-methyl-1H-indazol-3-yl)piperidine-2,6-dione]
	< 20	C[C@@H]1CN(c2ncc(Cl)c(Nc3ccc4c(c3)CC(=O)N4C)n2)CC[C@H]1Nc1ccc2c([C@H]3CCC(=O)NC3=O)nn(C)c2c1 (single isomer, unassigned) [Example 71]
